Test results published in PMC12040169 (PLOS Biology, 2025).

Assay: in vitro
Details: human, hela cells, % viability

Row | SMILES | viability at 28.5 h, 10 µM
1 | CCOC(=O)NC(=O)N1CCC(N2C(=O)OCC2(C)C)CC1 [CBK044179] | 90.5%
2 | O=C(NCCC1=CCCCC1)Nc1ccc2ccccc2c1 [CBK044195] | 104%
3 | Cc1cc(S(=O)(=O)NCC(=O)OC(C)C)c(C)cc1Cl [CBK044196] | 101%
4 | Cc1cc(C(=O)N2CCC(N3C(=O)OCC3(C)C)CC2)n(C(C)(C)C)n1 [CBK044233] | 94.4%
5 | Cn1nc(C(C)(C)C)cc1C(=O)N1CCC(N2C(=O)OCC2(C)C)CC1 [CBK044234] | 81.5%
6 | CC(=O)Nc1ccc(S(=O)(=O)NCCC#N)cc1Cl [CBK044272] | 95.2%
7 | O=S(=O)(c1ccc(OC(F)(F)F)cc1)N1CCc2ccccc21 [CBK044279] | 96.7%
8 | CCCCCc1ccc(S(=O)(=O)N2CCN(C(=O)C3CCCO3)CC2)cc1 (stereo not shown) [CBK044329] | 101%
9 | CCOC(=O)CN1CCN(S(=O)(=O)c2ccc(F)c(F)c2F)CC1 [CBK044345] | 92.4%
10 | N#Cc1ccccc1NC(=O)NCCC1=CCCCC1 [CBK044365] | 95.1%
11 | O=[N+]([O-])c1cccc(NS(=O)(=O)c2ccc(Cl)c(Cl)c2)c1 [CBK044396] | 78.5%
12 | CC(C)c1ccc(S(=O)(=O)NC(C#N)c2ccccc2)cc1 (stereo not shown) [CBK044403] | 101%
13 | O=S(=O)(NCCc1ccncc1)c1ccc(Cl)c(Cl)c1 [CBK044438] | 97.9%
14 | CC(C)c1ccc(S(=O)(=O)Nc2ccc3[nH]c(C(F)(F)F)nc3c2)cc1 [CBK044470] | 90.3%
15 | O=S(=O)(Nc1cccc2ncccc12)c1ccc(OC(F)(F)F)cc1 [CBK044490] | 112%
16 | O=S(=O)(c1cccs1)N1CCc2ccccc2C1 [CBK044531] | 113%
17 | O=C(NCCc1cccs1)Nc1ccc(F)c(F)c1F [CBK044543] | 96.1%
18 | CC(C)c1ccc(S(=O)(=O)Nc2ccc(Br)c(F)c2)cc1 [CBK044556] | 100%
19 | CC(C)c1ccc(S(=O)(=O)Nc2ccc(OC(F)F)cc2)cc1 [CBK044565] | 87.8%
20 | CCOC(=O)CN1CCN(S(=O)(=O)c2cc(Cl)ccc2Cl)CC1 [CBK044628] | 91.1%
21 | Cc1cc(C)nc(NS(=O)(=O)c2ccc(OC(F)(F)F)cc2)c1 [CBK044711] | 90.7%
22 | CC(C)c1ccc(S(=O)(=O)NCCC#N)cc1 [CBK044722] | 105%

Row | SMILES | viability at 28.5 h, 10 µM
23 | CCc1cc(Br)ccc1S(=O)(=O)NCCC#N [CBK044760] | 91.9%
24 | O=S(=O)(Nc1cccc(Cl)c1)c1ccc(OC(F)(F)F)cc1 [CBK044769] | 109%
25 | CC(=O)Nc1ccc(S(=O)(=O)N(C)c2ccccn2)cc1Cl [CBK044789] | 94.5%
26 | CCC(C)(C)c1ccc(S(=O)(=O)NCc2ccc(C(F)(F)F)cc2)cc1 [CBK044820] | 107%
27 | O=C(NCCc1cccs1)Nc1ccc(Cl)cc1C(F)(F)F [CBK044825] | 86.1%
28 | O=S(=O)(Nc1ccc(Cl)c(Cl)c1)c1ccc(Cl)c(Cl)c1 [CBK044838] | 86.8%
29 | N#CCNS(=O)(=O)c1ccc(OC(F)(F)F)cc1 [CBK044841] | 111%
30 | O=C(NCCc1cccs1)Nc1ccccc1OC(F)(F)F [CBK044873] | 98%
31 | Cc1cc(S(=O)(=O)Nc2n[nH]cc2C#N)c(C)cc1Cl [CBK044943] | 91.9%
32 | CCOC(=O)CNS(=O)(=O)c1cccs1 [CBK044958] | 93.3%
33 | Cc1ccc(CNC(=O)NCCc2cccs2)cc1 [CBK044960] | 88.5%
34 | Cc1cc(S(=O)(=O)N2CCN(c3ccc(Cl)cc3)CC2)c(C)cc1Cl [CBK044965] | 114%
35 | Cc1cc(C)cc(NC(=O)NCCc2cccs2)c1 [CBK044998] | 93.2%
36 | O=C(NCCc1cccs1)Nc1cccc(SC(F)(F)F)c1 [CBK044999] | 95%
37 | CCc1cccc(NC(=O)NCCC2=CCCCC2)c1 [CBK045009] | 108%
38 | CC(C)c1ccc(S(=O)(=O)Nc2cc(F)c(F)c(F)c2)cc1 [CBK045028] | 104%
39 | CCc1cc(Br)ccc1S(=O)(=O)NCCc1cccs1 [CBK045033] | 109%
40 | O=C(Nc1ccccc1C(F)(F)F)N1CCN(c2ccccc2Cl)CC1 [CBK045081] | 79.7%
41 | O=S(=O)(c1ccc(Cl)s1)N1CCN(c2ccccc2Cl)CC1 [CBK045098] | 98%
42 | CC(=O)Nc1ccc(S(=O)(=O)NCC#N)cc1Cl [CBK045102] | 97.3%
43 | CCc1cc(Br)ccc1S(=O)(=O)NCc1cccc(F)c1 [CBK045114] | 89.1%
44 | O=C(NCCc1ccccc1)NCCc1cccs1 [CBK045154] | 114%

Row | SMILES | viability at 28.5 h, 10 µM
45 | O=S(=O)(c1cccs1)N1CCCN(Cc2nccs2)CC1 [CBK045172] | 119%
46 | CCCCOc1ccc(NC(=O)NCCc2cccs2)cc1 [CBK045202] | 105%
47 | O=S(=O)(c1ccc(F)c(Cl)c1)N1CCCN(Cc2ccccc2)CC1 [CBK045211] | 101%
48 | COC[C@@H]1CCCN1S(=O)(=O)c1cccs1 [CBK045239] | 96%
49 | CCC(C)(C)c1ccc(S(=O)(=O)Nc2cc(Cl)ccc2O)cc1 [CBK045243] | 96%
50 | O=C(NCCc1cccs1)Nc1ccc2c(c1)C(F)(F)OC(F)(F)O2 [CBK045255] | 98.2%
51 | Cc1ccc(NS(=O)(=O)c2cccs2)cc1 [CBK045362] | 64%
52 | O=C(NCCc1cccs1)NCc1cc(F)ccc1F [CBK045363] | 97.1%
53 | CC(=O)c1ccc(S(=O)(=O)Nc2ccc(C)cc2)cc1 [CBK045380] | 108%
54 | COc1ccc(S(=O)(=O)Nc2ccccc2C(=O)Nc2ccc(F)cc2)cc1OC [CBK045404] | 91.2%
55 | CCN(CC)C(=O)c1ccccc1NS(=O)(=O)c1cc(Br)ccc1OC [CBK045422] | 89.6%
56 | O=C(Nc1ccc(F)cc1)c1ccccc1NS(=O)(=O)c1ccc(C(F)(F)F)cc1[N+](=O)[O-] [CBK045439] | 108%
57 | CCOC(=O)N1CCC(NS(=O)(=O)c2ccc(F)cc2)CC1 [CBK045455] | 95.1%
58 | CCOC(=O)N1CCC(NS(=O)(=O)Cc2ccccc2)CC1 [CBK045457] | 90.7%
59 | CCOC(=O)N1CCC(NS(=O)(=O)c2cc(Cl)sc2Cl)CC1 [CBK045462] | 86.7%
60 | CCOC(=O)N1CCC(NS(=O)(=O)c2cc(Br)ccc2OC)CC1 [CBK045463] | 115%
61 | CCOC(=O)N1CCC(NS(=O)(=O)c2ccc(OC)c(OC)c2)CC1 [CBK045464] | 104%
62 | CCOC(=O)N1CCC(NS(=O)(=O)Cc2ccccc2[N+](=O)[O-])CC1 [CBK045467] | 97.3%
63 | CCOC(=O)N1CCC(NS(=O)(=O)c2ccc(C)c([N+](=O)[O-])c2)CC1 [CBK045468] | 85.8%
64 | CCOC(=O)N1CCC(NS(=O)(=O)c2ccc(NC(C)=O)cc2)CC1 [CBK045470] | 97.8%
65 | CCOC(=O)N1CCC(NS(=O)(=O)c2ccc(Cl)c(Cl)c2Cl)CC1 [CBK045471] | 96.4%
66 | CCCCCC(=O)Nc1ccc(S(=O)(=O)Nc2nnc(CC)s2)cc1 [CBK045478] | 89%

Same assay, conditions: human, hela cells, % viability, bulk resorufin, single well

Row | SMILES | viability at 28.5 h, 10 µM
67 | O=C(Nc1ccc(OC(F)(F)F)cc1)N1CCC2(CC1)OCCO2 [CBK045235] | 91.7%
